In a melting point compilation (Tetko et al.):

SMILES | melting point [°C]
Cc1cc(C(=O)O)nn1-c1ccccc1 | 182 to 184
Cc1cc(NC(=O)C2CC2)sc1C(=O)O | 184 to 186
O=C(O)c1ccc(N2CCCC2=O)cc1 | 250 to 252
O=C(NC(C(=O)O)c1ccccc1)OCc1ccccc1 (stereo not drawn) | 130 to 132
O=C1C=CC(=O)N1C1CC1 | 54 to 56
Cc1ccc(S(N)(=O)=O)c(C(=O)O)c1 | 271 to 273
CC(C)COc1ccc(CC(=O)O)cc1 | 86 to 88
Cc1ccc(OCCCC(=O)O)cc1 | 83 to 85
COc1ccc2[nH]cc(C(C)=O)c2c1 | 206 to 208
CCc1ccc(C(N)C(=O)O)cc1 (stereo not drawn) | 219 to 221
COc1ccc(Cl)cc1C1(CN)CCOCC1 | 100 to 102
CC(C)(C)OC(=O)Nc1ccc(C(F)(F)F)cc1C(=O)O | 190 to 192
O=C(O)c1nnn(-c2ccc(Br)cc2)c1C1CC1 | 176 to 178
O=Cc1cc2c(cc1O)OCO2 | 114 to 116
CCOc1ccc(S(=O)(=O)N(C)c2ccc(OCC(=O)O)cc2)cc1 | 82 to 84
N#CCCn1cc(C(=O)O)c(-c2cccc3ccccc23)n1 | 179 to 181
CC(C)(N)CNC(=O)OC(C)(C)C | 68 to 70
O=C(CCl)NC(Cc1c[nH]c2ccccc12)C(=O)O (stereo not drawn) | 153 to 155
Clc1cc(NC2CCOc3ccccc32)ncn1 (stereo not drawn) | 129 to 131
O=C(CCCl)N1CCOCC1 | 46 to 48
Nc1ncc(-c2ccc(F)cc2)s1 | 209 to 211
O=C(NCCO)c1ccn[nH]1 | 169 to 171
N#Cc1nc(C2CC2)oc1N1CCNCC1 | 99 to 101

SMILES | melting point [°C]
COc1ccc2c(c1)c(C(=O)O)c(C)n2Cc1ccccc1 | 209 to 211
Cc1cc(NC(=O)C2CCCC2)sc1C(=O)O | 174 to 176
O=C1CC2(Cc3ccccc3C2)C(=O)O1 | 164 to 166
[N-]=[N+]=NS(=O)(=O)c1cccc2c1N=S=N2 | 118 to 120
CCOC(=O)c1snc(C(N)=O)c1N | 205 to 207
CNC1CCC(NC(=O)OC(C)(C)C)CC1 (stereo not drawn) | 72 to 74
NC(=NO)c1cccc(Oc2ccccc2)c1 | 66 to 68
O=C(O)c1cc([N+](=O)[O-])c(F)cc1Br | 171 to 173
O=C1C=CC(=O)N1c1cccc(O)c1 | 113 to 115
Fc1ccc(CBr)c(Br)c1 | 51 to 53
CC(C)C1CNc2ccccc2N1 (stereo not drawn) | 73 to 75
Cc1ncsc1NC(=O)OC(C)(C)C | 136 to 138
CC(C)(O)c1cnc(Cl)nc1 | 98 to 100
O=[N+]([O-])c1ccc(CBr)c(F)c1 | 59 to 61
Cc1cc(Cl)n2nc(C(F)(F)F)nc2n1 | 106 to 108
O=C(O)CNS(=O)(=O)c1ccc2c(c1)COC2 | 219 to 221
CC(=O)Nc1cc(Cl)ccc1N | 137 to 139
CC(C)NC(=O)C(C#N)=CN(C)C | 113 to 115
CCOC(=O)Nc1ccc(N)cc1C#N | 166 to 168
O=C(O)c1cncn1-c1ccccc1 | 208 to 215
COCCN(C)S(N)(=O)=O | 34 to 36
Brc1ccccc1Oc1ccncc1 | 68 to 70
NCC(O)c1cc2ccccc2s1 (stereo not drawn) | 128 to 130

SMILES | melting point [°C]
O=C(O)c1cnc2ccccc2c1SC1CCCC1 | 111 to 113
CS(=O)(=O)c1ccc(OCCC(=O)O)cc1 | 108 to 110
CC1CCCCC1NC(=O)CCl (stereo not drawn) | 100 to 102
COc1ccc(CN2C(=O)c3ccccc3C2=O)cc1C(=O)O | 143 to 145
COc1ccc2c(c1)C1(CC2)NC(=O)NC1=O (stereo not drawn) | 189 to 191
O=C1CCc2cc(Cl)ccc2N1 | 162 to 164
CN(Cc1c(F)cccc1Cl)C(=O)CCl | 54 to 56
O=C(O)c1ccc2nnn(O)c2c1 | 229 to 231
CCn1c(C)c(C(=O)O)c2cc(OC)ccc21 | 173 to 175
CC1Oc2ccc(Br)cc2NC1=O (stereo not drawn) | 189 to 191
CCCCn1c(=O)c(CCC(=O)O)nc2ccccc21 | 146 to 148
Cc1ccc(=O)n(CC(=O)O)n1 | 249 to 251
O=Cc1ccc(-c2ccc([N+](=O)[O-])cc2Cl)o1 | 136 to 138
O=C(CCSc1ccccc1)c1ccc(F)cc1 | 111 to 113
O=C(O)CSc1nnc(-c2ccc(F)cc2)n1CC1CCCO1 (stereo not drawn) | 131 to 133
CNS(=O)(=O)c1cc(C(=O)O)ccc1OC | 221 to 223
CC(C)(C)OC(=O)N1CCC(CCC(=O)O)CC1 | 99 to 101
CSc1nc(CCl)cc(=O)[nH]1 | 176 to 178
CSCCC1NC(=O)NC1=O (stereo not drawn) | 108 to 110
Cc1ccc(N)cc1S(N)(=O)=O | 151 to 153
C/C=C/c1cc(C(=O)O)cc(OC)c1OC | 142 to 144
O=C(O)CCCN1C(=O)CCc2ccccc21 | 179 to 181
Cc1cc(C#N)ccc1-n1cncn1 | 139 to 141

More lines, now with the values ahead:

melting point [°C] | SMILES
149 to 151 | Nc1cccc(N2CCNC2=O)c1
91 to 93 | COc1cccc(-c2n[nH]cc2C=O)c1
180 to 182 | Cc1cc(C(=O)CCl)c(C)n1-c1ncn[nH]1
80 to 82 | O=[N+]([O-])c1sccc1Br
60 to 62 | Cc1nc2n(n1)CC(N)CC2 (stereo not drawn)
125 to 127 | COc1ccc(-c2cc(N)n(-c3cccc(C)c3)n2)cc1
189 to 191 | Cc1ccc2c(c1)nc(S)n2Cc1ccccc1Cl
189 to 191 | O=C(O)CCCCCNC1=NS(=O)(=O)c2ccccc21
43 to 45 | N#CC1(O)CCOCC1
101 to 103 | CC(N)c1ccc2c(c1)CC(=O)N2C (stereo not drawn)
194 to 196 | O=C(O)CSc1nnc(C2CC2)n1Cc1ccccc1
250 to 252 | Cn1c(C(=O)O)c(Cl)c2cc(Br)ccc21
99 to 101 | Nc1nnc(SCc2ccccc2)[nH]1
113 to 115 | COC(=O)C(=O)CC(=O)c1cccnc1
71 to 73 | N#Cc1ccc(OCc2ccccc2)nc1
134 to 136 | O=C(O)CCCOc1ccc(S(=O)(=O)Cl)cc1Cl
235 to 237 | Sc1n[nH]c(C2CC2)n1
96 to 98 | N#Cc1ncn(CC(=O)O)n1
98 to 100 | OCCCNc1ccncc1
108 to 110 | Nc1ccnc(Oc2ccccc2Br)c1
139 to 141 | O=C(O)c1cnc(C2CCCO2)s1 (stereo not drawn)
121 to 123 | O=S(=O)(Cl)C12CC3CC(CC(C3)C1)C2
164 to 166 | Cc1c(C(=O)O)nnn1-c1ccc(Cl)cc1F
167 to 169 | Cc1noc(C=Cc2ccc(F)cc2)c1N
259 to 261 | O=C(O)c1ccnc2ncnn12

melting point [°C] | SMILES
117 to 119 | CC(C)(C)OC(=O)N1CCCC(C)(C(=O)O)C1 (stereo not drawn)
138 to 140 | NC(=O)c1ccccc1N1CCC(N)C1 (stereo not drawn)
102 to 104 | CCOc1ccc(CCC(=O)O)cc1
200 to 202 | O=C(O)c1cc2ccccc2c2cccnc12
179 to 181 | NC(CC(=O)N1CCCCC1)=NO
215 to 217 | Cc1cc(N)n(C2CCS(=O)(=O)C2)n1 (stereo not drawn)
97 to 99 | CS(=O)(=O)N1CCC(=O)CC1
231 to 233 | CC(C)c1sc(N)nc1-c1ccccc1
119 to 121 | Nc1cccn(Cc2ccccc2)c1=O
64 to 68 | Cc1cc(C(=O)CCl)c(C)n1Cc1ccccc1
229 to 231 | COc1ccc(NC(=O)COc2ccccc2C(=O)O)cc1Cl
64 to 66 | O=C(O)CSc1ccc2c(c1)CCC2
97 to 99 | Cc1ccc(S(=O)(=O)Cl)c([N+](=O)[O-])c1
291 to 293 | O=C(O)c1c2c(nc3ccc(Br)cc13)CCCC2
177 to 179 | NC(=NO)c1cnn2cccnc12
129 to 131 | O=C(O)c1cc(Br)c(S(=O)(=O)Cl)s1
186 to 188 | N#CCc1ccc(C(N)=O)cc1
223 to 225 | O=C(O)/C=C/c1nc2ccccc2o1
46 to 50 | CC(C)(C)OC(=O)N1CCc2ccccc21
172 to 174 | Oc1cccc(-n2ccnc2)c1
107 to 111 | O=C(O)c1c(F)ccc(S(=O)(=O)Cl)c1F
215 to 217 | Cc1c(C(=O)O)sc2ncn(C)c(=O)c12
177 to 179 | O=C1OCCN1c1ccc(O)cc1
92 to 94 | COc1ccc(C(O)CCC(=O)O)cc1 (stereo not drawn)
122 to 124 | CCNC(=O)Nc1cccc(N)c1

melting point [°C] | SMILES
140 to 142 | Nc1nc(-c2ccccc2O)cs1
266 to 268 | COc1cc2ncc(O)nc2cc1OC
126 to 128 | Cc1cccc(C(C)C)c1NC(=O)C(C)Cl (stereo not drawn)
68 to 70 | O=S(=O)(Cl)c1cc(Br)ccc1F
99 to 101 | CC(=O)c1nnn(-c2ccccc2)c1C
184 to 186 | O=C(O)CCC(=O)c1ccc2ccc3cccc4ccc1c2c34
223 to 225 | O=C(O)c1n[nH]cc1[N+](=O)[O-]
204 to 206 | Fc1ccc(-c2nnc(S)o2)cc1
328 to 330 | O=C(O)C1=NN(c2nc3ccccc3[nH]2)C(=O)CC1
104 to 106 | CC1CNCCC1NC(=O)OC(C)(C)C (stereo not drawn)
200 to 202 | Nc1sc2c(c1C(=O)c1ccc(C(F)(F)F)cc1)CCC2
157 to 159 | O=C(O)C1CC(=O)N(c2ccc(S(=O)(=O)Cl)cc2)C1 (stereo not drawn)
102 to 104 | CS(=O)(=O)c1cccc(Cl)c1C=O
210 to 212 | Nc1cc(S(=O)(=O)N2CCOCC2)ccc1N1CCOCC1
141 to 146 | Nc1cc(C(=O)O)cc(C(F)(F)F)c1
269 to 271 | O=C(O)Cc1ccc(NC(=O)c2ccc(Br)cc2)cc1
154 to 156 | CC(C)(C)OC(=O)N1CCOCC1C(=N)NO (stereo not drawn)
178 to 180 | O=c1[nH]c(-c2ccccn2)nc2c1CCC2
142 to 144 | CNC(=O)c1cc([N+](=O)[O-])ccc1F
235 to 237 | Cc1c(C(=O)O)sc2ccsc12
79 to 81 | O=C(O)C1CCCN1C(=O)c1ccncc1 (stereo not drawn)
277 to 279 | CCOC(=O)c1sc2nc(CS(=O)(=O)CC(=O)O)[nH]c(=O)c2c1C
217 to 219 | CC(=O)Nc1ccc2nc(N)sc2c1
195 to 197 | O=C(Nc1ccccc1)c1ccc(O)cc1
